Experimental data from patent US11986315B2, “Apparatus and method for the non-invasive detection of tetrahydrocannabinol use and impairment” (CHILDREN'S NATIONAL MEDICAL CENTER, priority 2018, dated 2024).

Tested on: pupillary light reflex of an individual
Experiment: pupillary light reflex after inhalation of THC (pupillometry)
Assay type: in vivo
From the text: Following acquisition 131, primary data such as, for instance, pupillary dimensions and pupillary oscillations therefrom, can be determined for each of the plurality of video frames in the video sequence of the eye of the patient 132. […]
Pupillary oscillations and/or reactions to light, as described above, can reflect the activity of the autonomic nervous system. […] The pupillary light reflex can be evaluated via the method, and apparatus thereof, of the present disclosure, wherein higher frequency activation occurs with increased sympathetic tone and lower frequency activation occurs from increased parasympathetic tone. […]
According to an embodiment, a variety of pupillometric measures can be evaluated from pupillary data following initial video sequence processing 132 such that, in combination with secondary data 134 including frequency spectra, patient response profiles can be better characterized. […] As introduced above, the baseline pupil size can be found before the flash of light and the maximally constricted size can be determined after the flash of light. […]

CCCCCc1cc(O)c2c(c1)OC(C)(C)[C@@H]1CCC(C)=C[C@@H]21 [THC, Δ^9-tetrahydrocannabinol] was tested, and the “influence on pupillary light reflex” value (cannabis-tolerant individual, 30, 60, 90, 120 and 150 minutes after inhalation of THC, FIG. 4) was “inhibited to varying levels” and the “influence on pupillary light reflex” value (individual, 30, 60, 120 and 180 minutes after inhalation of 24 mg of THC, FIG. 3) was “inhibited to varying levels”.
